Results published in article PMC8509773, “3-Pyridinylidene Derivatives of Chemically Modified Lupane and Ursane Triterpenes as Promising Anticancer Agents by Targeting Apoptosis” (International Journal of Molecular Sciences, 2021).

Columns and labels:
Test in all cases: NCI-60 SRB screening (one-dose and five-dose)
Assay type in all cases: cell-based, human
786-0 = details: 48 h; for Growth Percent: 786-0, 10 μM
Procedure, shortened: (§1)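 After a 48-h incubation with compound, cellular protein was stained with SRB and growth estimated by spectrophotometry relative to untreated controls.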

ACHN = details: 48 h; for Growth Percent: 10 μM
Procedure, shortened: as §1

SN12C = details: 48 h; for Growth Percent: 10 μM
Procedure, shortened: (§2)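 Read-out is sulforhodamine B staining of cellular protein, giving percent growth relative to cultures not exposed to test agent. Exposure lasted 48 h at one compound concentration.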

SF-268 = details: 48 h; for Growth Percent: SF-268, 10 μM
Procedure, shortened: as §2

UO-31 = details: 48 h; for Growth Percent: UO-31, 10 μM
Procedure, shortened: as §1

DU-145 = details: 48 h; for Growth Percent: DU-145, 10 μM
Procedure, shortened: (§3)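 Growth inhibition is scored with sulforhodamine B after 48 h of continuous compound exposure. An MG_MID averages each parameter over the whole cell panel, insensitive lines being counted at the top tested concentration.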

MALME-3M = details: 48 h; for Growth Percent: 10 μM
Procedure, shortened: as §1

HCT-116 = details: 48 h; for Growth Percent: HCT-116, 10 μM
Procedure, shortened: as §1

EKVX = details: 48 h; for Growth Percent: 10 μM
Procedure, shortened: as §1

OVCAR-4 = details: 48 h; for Growth Percent: OVCAR-4, 10 μM
Procedure, shortened: as §3

A549/ATCC = details: 48 h; for Growth Percent: 10 μM
Procedure, shortened: as §1

CCRF-CEM = details: 48 h; for Growth Percent: 10 μM
Procedure, shortened: as §3

COLO 205 = details: 48 h; for Growth Percent: COLO 205, 10 μM
Procedure, shortened: as §1

MDA-MB-435 = details: 48 h; for Growth Percent: MDA-MB-435, 10 μM
Procedure, shortened: as §1

SF-539 = details: 48 h; for Growth Percent: SF-539, 10 μM
Procedure, shortened: as §1

SNB-75 = details: 48 h; for Growth Percent: SNB-75, 10 μM
Procedure, shortened: as §3

UACC-257 = details: 48 h; for Growth Percent: UACC-257, 10 μM
Procedure, shortened: as §1

SK-MEL-5 = details: 48 h; for Growth Percent: SK-MEL-5, 10 μM
Procedure, shortened: as §1

MOLT-4 = details: 48 h; for Growth Percent: MOLT-4, 10 μM
Procedure, shortened: as §2

T-47D = details: 48 h; for Growth Percent: T-47D, 10 μM
Procedure, shortened: as §3

[1] = Homo sapiens, five dose 0.01–100 μM

Row | SMILES | Growth Percent (786-0) [%] | Growth Percent (ACHN) [%] | Growth Percent (SN12C) [%] | Growth Percent (SF-268) [%] | Growth Percent (UO-31) [%] | Growth Percent (DU-145) [%] | Growth Percent (MALME-3M) [%] | Growth Percent (HCT-116) [%] | Growth Percent (EKVX) [%] | Growth Percent (OVCAR-4) [%] | Growth Percent (A549/ATCC) [%] | Growth Percent (CCRF-CEM) [%] | Growth Percent (COLO 205) [%] | Growth Percent (MDA-MB-435) [%] | Growth Percent (SF-539) [%] | Growth Percent (SNB-75) [%] | Growth Percent (UACC-257) [%] | Growth Percent (SK-MEL-5) [%] | Growth Percent (MOLT-4) [%] | Growth Percent (T-47D) [%] | further results
1 | COc1cccc2c1C(=O)c1c(O)c3c(c(O)c1C2=O)C[C@@](O)(C(=O)CO)C[C@@H]3O[C@H]1C[C@H](N)[C@H](O)[C@H](C)O1 [Doxorubicin, reference compound] |  |  |  |  |  |  |  |  |  |  |  |  |  |  |  |  |  |  |  |  | GI50 (786-0; Homo sapiens, 786-0, five dose 0.01–100 μM): 130 nM; GI50 (ACHN; [1]): 80 nM; GI50 (SN12C; [1]): 70 nM; GI50 (SF-268; Homo sapiens, SF-268, five dose 0.01–100 μM): 100 nM; GI50 (UO-31; Homo sapiens, UO-31, five dose 0.01–100 μM): 490 nM; GI50 (DU-145; Homo sapiens, DU-145, five dose 0.01–100 μM): 110 nM; GI50 (MALME-3M; [1]): 120 nM; GI50 (HCT-116; Homo sapiens, HCT-116, five dose 0.01–100 μM): 80 nM; GI50 (EKVX; [1]): 410 nM; GI50 (OVCAR-4; Homo sapiens, OVCAR-4, five dose 0.01–100 μM): 370 nM; GI50 (A549/ATCC; [1]): 60 nM; GI50 (CCRF-CEM; [1]): 80 nM; GI50 (COLO 205; Homo sapiens, COLO 205, five dose 0.01–100 μM): 180 nM; GI50 (MDA-MB-435; Homo sapiens, MDA-MB-435, MDA-B-435, five dose 0.01–100 μM): 250 nM; GI50 (SF-539; Homo sapiens, SF-539, five dose 0.01–100 μM): 120 nM; GI50 (SNB-75; Homo sapiens, SNB-75, five dose 0.01–100 μM): 70 nM; GI50 (UACC-257; Homo sapiens, UACC-257, five dose 0.01–100 μM): 140 nM; GI50 (SK-MEL-5; Homo sapiens, SK-MEL-5, five dose 0.01–100 μM): 80 nM; GI50 (MOLT-4; Homo sapiens, MOLT-4, five dose 0.01–100 μM): 30 nM; GI50 (T-47D; Homo sapiens, T47D, T -47D, five dose 0.01–100 μM): 60 nM
2 | C[C@H]1[C@@H]2[C@H]3CC[C@@H]4[C@@]5(C)CC[C@H](O)C(C)(C)[C@@H]5CC[C@@]4(C)[C@]3(C)CC[C@]23CO[C@@]1(C)C(C(=O)/C=C/c1cccnc1)C3 (stereo partly drawn) [Compound 4] | 63.59 | 41.58 | 62.68 | 81.93 | 58.69 | 73.94 | 54.41 | 14.40 | 101.00 | 49.03 | 57.76 | 30.84 | 56.27 | 34.50 | 77.76 | 72.76 | 49.29 | 37.02 | 25.21 | 30.20 | 
3 | COC(=O)[C@]12CC[C@@H](C(C)=O)[C@@H]1[C@H]1CC[C@@H]3[C@@]4(C)C/C(=C\c5cccnc5)C(=O)C(C)(C)[C@@H]4CC[C@@]3(C)[C@]1(C)CC2 [Compound 8, Methyl 3,20-dioxo-2-(3-pyridinylidene)-29-nor-lup-28-oate] | 84.87 | 32.49 | 57.75 | 68.63 | 56.64 | 68.80 | 29.95 | 3.92 | 85.77 | 26.68 | 51.40 | 7.57 | 82.53 | 72.63 | 81.03 | 110.35 | 58.14 | 39.76 | 5.47 | 24.42 | 
4 | C[C@H]1[C@@H]2[C@H]3CC[C@@H]4[C@@]5(C)CC[C@H](O)C(C)(C)[C@@H]5CC[C@@]4(C)[C@]3(C)CC[C@]23CO[C@@]1(C)[C@@H](C(=O)/C=C/c1ccco1)C3 [Compound 5, 3β-Hydroxy-21-[3-(2E-furyl)-prop-2-en-1-one]-20β,28-epoxy-18α,19βH-ursane] | 103.94 | 44.33 | 100.53 | 96.31 | 77.02 | 102.22 | −11.31 | 100.13 | 104.96 | 111.19 | 103.89 | 100.63 | −2.30 | 17.83 | 99.66 | 78.39 | −8.91 | 8.55 |  | 84.80 | 
5 | CC(=O)[C@H]1C[C@]23CC[C@]4(C)[C@H](CC[C@@H]5[C@@]6(C)CCC(=O)C(C)(C)[C@@H]6CC[C@]54C)[C@H]2[C@H](C)[C@@]1(C)OC3 [Compound 2, 3-oxo-21β-acetyl-20β,28-epoxy-18α,19βH-ursane] | 89.64 | 99.80 | 87.69 | 90.95 | 66.99 | 98.96 | 109.60 | 100.51 | 71.73 | 85.13 | 93.03 | 104.98 | 111.81 | 100.67 | 95.15 | 72.80 | 103.91 | 100.12 | 100.88 | 106.29 | 
